According to the supplement of paper PMC8498969:

Legend:
HEK293 [1] = assay: maximal inhibition of ZIKV NS1 production (% inhibition); higher = stronger antiviral effect
Protocol: (§1)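 HEK293 cells in 1536-well plates were pre-treated with compound for 1 h, infected with ZIKV (MOI 1) for 24 h, and NS1 antigen (intra- plus extracellular) was measured by TR-FRET. Confirmation used 11-point 1:3 dilutions, and IC50 and maximal inhibition were fitted in GraphPad Prism.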

HEK293 [2] = assay: cytotoxicity IC50 (ATP content, uninfected cells); higher = less cytotoxic; details: infection: none
HEK293 [3] = assay: IC50 for inhibition of ZIKV NS1 production
Protocol: as §1

Row | Compound | maximal inhibition (HEK293 [1]) | cytotoxicity IC50 (HEK293 [2]) | IC50 (HEK293 [3])
1 | Cc1nc(N)nc(N)c1-c1ccc(Cl)c(Cl)c1 | 102 | 1.5 µM | 2 µM
2 | Clc1ccc(CCC(Cn2ccnc2)Sc2c(Cl)cccc2Cl)cc1 (stereo unspecified) | 97 | 16 µM | 39 µM
